Our source for the EC50 and Ki values is US20240174696A1, “2,8-DIAZASPIRO[4.5]DECANE COMPOUNDS” (Genentech, Inc., priority 2021, published 2024).

Assay [1] deals with TAZ nuclear translocation in SW1990 cells. Description: TAZ Nuclear Translocation Assay. The class given is cell-based. To be noted: Homo sapiens, 4 hours. The procedure, abridged:
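SW1990 cells in RPMI1640/10% FBS treated with compounds for 4 h at 37 °C, then fixed and immunostained for TAZ with Hoechst nuclear counterstain and imaged by high-content imaging. Read-out is the nuclear/cytoplasmic-ring fluorescence ratio, normalized to DMSO (0%) and an inhibitor control (100%); EC50 from four-parameter fit.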

Assay [2] deals with Human LATS2 catalytic domain (Homo sapiens (Human), UniProt Q9NRM7). Description: LATS2 High ATP HTRF Assay. To be noted: no asterisk: LATS2 High ATP HTRF Assay, 5000 μM ATP, 0.05 nM LATS2. The class given is biochemical. The procedure, abridged: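 Phosphorylation of 0.5 μM STK S1 peptide at high ATP (5000 μM), 2 h at room temperature, by 0.05 nM LATS2 kinase domain/Mob1b complex after 10 min compound pre-incubation. Ki derived from HTRF-based IC50 (4-parameter logistic) by Cheng-Prusoff, ATP Km 105 μM.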
Chain of Human LATS2 catalytic domain (Q9NRM7 553-1088): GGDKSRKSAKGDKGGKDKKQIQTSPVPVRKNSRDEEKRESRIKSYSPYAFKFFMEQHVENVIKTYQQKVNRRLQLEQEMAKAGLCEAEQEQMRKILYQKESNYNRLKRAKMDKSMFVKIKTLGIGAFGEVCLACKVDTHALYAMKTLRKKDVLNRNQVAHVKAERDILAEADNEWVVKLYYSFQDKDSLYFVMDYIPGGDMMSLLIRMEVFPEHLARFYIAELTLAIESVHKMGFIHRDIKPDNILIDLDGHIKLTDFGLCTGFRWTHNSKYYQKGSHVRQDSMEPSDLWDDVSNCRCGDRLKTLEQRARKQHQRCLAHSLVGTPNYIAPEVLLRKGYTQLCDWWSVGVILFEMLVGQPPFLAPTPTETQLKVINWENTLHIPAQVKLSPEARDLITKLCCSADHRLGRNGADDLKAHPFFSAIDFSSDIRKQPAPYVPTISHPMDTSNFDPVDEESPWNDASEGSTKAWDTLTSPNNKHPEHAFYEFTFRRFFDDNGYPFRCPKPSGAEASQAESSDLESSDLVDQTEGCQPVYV
Chain of Human LATS2 catalytic domain (Q7L9L4 whole entry partner, the tested form may be a part): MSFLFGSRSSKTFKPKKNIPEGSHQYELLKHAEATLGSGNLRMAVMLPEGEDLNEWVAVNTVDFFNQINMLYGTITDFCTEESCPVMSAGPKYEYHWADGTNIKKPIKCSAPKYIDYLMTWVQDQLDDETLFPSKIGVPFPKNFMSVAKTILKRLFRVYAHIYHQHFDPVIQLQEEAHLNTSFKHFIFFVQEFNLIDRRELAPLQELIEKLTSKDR

Bounds are passed on as bounds.

What is called EC50 is the concentration needed to bring the measured effect to its halfway point. A high value points to lower potency in that assay. By Ki is commonly meant the dissociation constant of the complex between target and ligand, obtained from inhibition or displacement. A high value points to a looser hold on the target. For `COc1[nH]ncc1-c1nc(N2CCC3(CCNC3)CC2)c2ccncc2n1` [Compound 257, 2-(5-methoxy-1H-pyrazol-4-yl)-4-(2,8-diazaspiro[4.5]decan-8-yl)pyrido[3,4-d]pyrimidine], the EC50 in assay [1] is > 10000 nM. This molecule also displayed an inhibition constant (Ki) in assay [2] of 8 nM.

`CN(C)c1cncc2nc(-c3ccncc3)nc(N3CCC4(CCNC4)CC3)c12` [Compound 258, N,N-Dimethyl-2-(pyridin-4-yl)-4-(2,8-diazaspiro[4.5]decan-8-yl)pyrido[3,4-d]pyrimidin-5-amine] returned an EC50 in assay [1] of 1900 nM. This molecule also gave an inhibitory constant (Ki) in assay [2] of 1.8 nM.

With `CN1CCC2(CCN(c3nc(-c4ccncc4)nc4cncc(O)c34)CC2)C1` [Compound 259, 4-(2-methyl-2,8-diazaspiro[4.5]decan-8-yl)-2-(pyridin-4-yl)pyrido[3,4-d]pyrimidin-5-ol], the EC50 in assay [1] was > 10000 nM. The inhibitory constant (Ki) in assay [2] amounted to 1.6 nM.

`c1cc(-c2nc(N3CCC4(CCNC4)CC3)c3c(OC4COC4)cncc3n2)ccn1` [Compound 260, 5-(Oxetan-3-yloxy)-2-(pyridin-4-yl)-4-(2,8-diazaspiro[4.5]decan-8-yl)pyrido[3,4-d]pyrimidine]: the EC50 in assay [1] stood at 4000 nM. The same molecule showed a Ki in assay [2] of 0.055 nM.

For `C#CCN1CCC2(CCN(c3nc(-c4ccncc4)nc4cnccc34)CC2)C1` [Compound 261, 4-(2-(prop-2-yn-1-yl)-2,8-diazaspiro[4.5]decan-8-yl)-2-(pyridin-4-yl)pyrido[3,4-d]pyrimidine], in assay [1], the EC50 came to 580 nM. Affinity in assay [2] was put at a Ki of 0.1 nM.

In assay [1], `Cc1[nH]ncc1-c1nc(N2CCC3(CCN(C)C3)CC2)c2ccnc(Cl)c2n1` [Compound 262, 8-chloro-2-(5-methyl-1H-pyrazol-4-yl)-4-(2-methyl-2,8-diazaspiro[4.5]decan-8-yl)pyrido[3,4-d]pyrimidine] yielded an EC50 of 250 nM. This molecule had a Ki in assay [2] of 0.028 nM.

In the case of `COCCOc1cncc2nc(-c3ccncc3)nc(N3CCC4(CCNC4)CC3)c12` [Compound 263, 5-(2-methoxyethoxy)-2-(pyridin-4-yl)-4-(2,8-diazaspiro[4.5]decan-8-yl)pyrido[3,4-d]pyrimidine], in assay [1], the midpoint of the response, the EC50, lay at 1200 nM. Moreover, the Ki in assay [2] came out at 0.11 nM.

With `COc1cncc2nc(-c3c[nH]nc3C)nc(N3CCC4(CCN(C)C4)CC3)c12` [Compound 264, 5-methoxy-2-(3-methyl-1H-pyrazol-4-yl)-4-(2-methyl-2,8-diazaspiro[4.5]decan-8-yl)pyrido[3,4-d]pyrimidine], in assay [1], the concentration giving a half-maximal response (EC50) came out at 170 nM. In assay [2], this molecule yielded a Ki of 0.026 nM.

In assay [1], `COc1cncc2nc(-c3c[nH]nc3C)nc(N3CCC4(CCN(CC(C)(C)O)C4)CC3)c12` [Compound 265, 1-(8-(5-methoxy-2-(3-methyl-1H-pyrazol-4-yl)pyrido[3,4-d]pyrimidin-4-yl)-2,8-diazaspiro[4.5]decan-2-yl)-2-methylpropan-2-ol] came in with an EC50 of 240 nM. Further, the affinity in assay [2] corresponds to a Ki of 0.047 nM.

`CN1CCC2(CCN(c3nc(-c4ccncc4)nc4c(Cl)nccc34)CC2)C1` [Compound 266, 8-chloro-4-(2-methyl-2,8-diazaspiro[4.5]decan-8-yl)-2-(pyridin-4-yl)pyrido[3,4-d]pyrimidine] came in with an EC50 in assay [1] of 1100 nM. The inhibition constant (Ki) in assay [2] came out at 0.37 nM.

In the case of `FCOc1cncc2nc(-c3ccncc3)nc(N3CCC4(CCNC4)CC3)c12` [Compound 267, 5-(fluoromethoxy)-2-(pyridin-4-yl)-4-(2,8-diazaspiro[4.5]decan-8-yl)pyrido[3,4-d]pyrimidine], in assay [1], the response was half-maximal at 360 nM (EC50). Moreover, in assay [2], the Ki is 0.028 nM.

With `CC(C)(O)CN1CCC2(CCN(c3nc(-c4ccncc4)nc4cncc(OC5COC5)c34)CC2)C1` [Compound 268, 2-Methyl-1-(8-(5-(oxetan-3-yloxy)-2-(pyridin-4-yl)pyrido[3,4-d]pyrimidin-4-yl)-2,8-diazaspiro[4.5]decan-2-yl)propan-2-o0], a half-maximal response in assay [1] (EC50) required 130 nM. This molecule also showed a Ki in assay [2] of 0.034 nM.

Molecule `CN1CCC2(CCN(c3nc(-c4ccncc4)nc4cncc(OC5COC5)c34)CC2)C1` [Compound 269, 4-(2-Methyl-2,8-diazaspiro[4.5]decan-8-yl)-5-(oxetan-3-yloxy)-2-(pyridin-4-yl)pyrido[3,4-d]pyrimidine] displayed an EC50 in assay [1] of 210 nM. This molecule showed a Ki in assay [2] of 0.034 nM.

In the case of `CN1CCC2(CCN(c3nc(-c4ccncc4)nc4cncc(OCC5COC5)c34)CC2)C1` [Compound 270, 4-(2-Methyl-2,8-diazaspiro[4.5]decan-8-yl)-5-(oxetan-3-ylmethoxy)-2-(pyridin-4-yl)pyrido[3,4-d]pyrimidine], the half-maximal effective concentration (EC50) in assay [1] is 860 nM. Further, the Ki in assay [2] is 0.15 nM.

With `C#CC(C)(O)CN1CCC2(CCN(c3nc(-c4ccncc4)nc4cnccc34)CC2)C1` (stereo not shown) [Compound 271, 2-methyl-1-(8-(2-(pyridin-4-yl)pyrido[3,4-d]pyrimidin-4-yl)-2,8-diazaspiro[4.5]decan-2-yl)but-3-yn-2-ol], in assay [1], the EC50 worked out at 330 nM. The same molecule had a Ki in assay [2] of 0.041 nM.

Consider `Clc1nccc2c(N3CCC4(CCNC4)CC3)nc(-c3ccncc3)nc12` [Compound 272, 8-chloro-2-(pyridin-4-yl)-4-(2,8-diazaspiro[4.5]decan-8-yl)pyrido[3,4-d]pyrimidine trifluoro acetate], for which the EC50 in assay [1] was determined as 1100 nM. The same molecule registered a Ki in assay [2] of 0.31 nM.

As for `COc1cncc2nc(-c3c[nH]nc3C)nc(N3CCC4(CCN(CC5COC5)C4)CC3)c12` [Compound 273, 5-methoxy-2-(3-methyl-1H-pyrazol-4-yl)-4-(2-(oxetan-3-ylmethyl)-2,8-diazaspiro[4.5]decan-8-yl)pyrido[3,4-d]pyrimidine], in assay [1], the EC50 was 260 nM. This molecule came in with a Ki in assay [2] of 0.043 nM.

On to `FC(F)Oc1cncc2nc(-c3ccncc3)nc(N3CCC4(CCNC4)CC3)c12` [Compound 274, 5-(difluoromethoxy)-2-(pyridin-4-yl)-4-(2,8-diazaspiro[4.5]decan-8-yl)pyrido[3,4-d]pyrimidine], for which a half-maximal effect in assay [1] (EC50) was put at 180 nM. The same molecule registered an inhibitory constant (Ki) in assay [2] of 0.02 nM.

In assay [1], `COc1cnc(Cl)c2nc(-c3ccncc3)nc(N3CCC4(CCN(C)C4)CC3)c12` [Compound 275, 8-chloro-5-methoxy-4-(2-methyl-2,8-diazaspiro[4.5]decan-8-yl)-2-(pyridin-4-yl)pyrido[3,4-d]pyrimidine] yielded an EC50 of 310 nM. In assay [2], this molecule gave a Ki of 0.02 nM.

In assay [1], `COCC1CC2(CCN(c3nc(-c4ccncc4)nc4cncc(OC)c34)CC2)CN1` (stereo not shown) [Compound 276, 5-methoxy-4-(3-(methoxymethyl)-2,8-diazaspiro[4.5]decan-8-yl)-2-(pyridin-4-yl)pyrido[3,4-d]pyrimidine] came in with an EC50 of 410 nM. In assay [2], this molecule gave an inhibition constant (Ki) of 0.19 nM.

Molecule `CN1CCC2(CCN(c3nc(-c4ccncc4)nc4cncc(OC5CC(C#N)C5)c34)CC2)C1` (stereo not shown) [Compound 277, 3-((4-(2-Methyl-2,8-diazaspiro[4.5]decan-8-yl)-2-(pyridin-4-yl)pyrido[3,4-d]pyrimidin-5-yl)oxy)cyclobutane-1-carbonitrile] yielded an EC50 in assay [1] of 290 nM. In addition, in assay [2], the affinity, expressed as Ki, was 0.11 nM.

Molecule `COc1cncc2nc(-c3ccncc3)nc(N3CCC4(CCNC4=O)CC3)c12` [Compound 279, 8-(5-methoxy-2-(pyridin-4-yl)pyrido[3,4-d]pyrimidin-4-yl)-2,8-diazaspiro[4.5]decan-1-one] displayed a concentration for a half-maximal effect (EC50) in assay [1] of 5300 nM. The Ki in assay [2] is 4.5 nM.

With `COc1cncc2nc(-c3ccncc3)nc(N3CCC4(CCN(CC(F)F)C4)CC3)c12` [Compound 280, 4-(2-(2,2-difluoroethyl)-2,8-diazaspiro[4.5]decan-8-yl)-5-methoxy-2-(pyridin-4-yl)pyrido[3,4-d]pyrimidine], the midpoint of the response in assay [1], the EC50, lay at 570 nM. This molecule registered an inhibition constant (Ki) in assay [2] of 0.039 nM.

As to `c1cc(-c2cc3cnccc3c(N3CCC4(CCNC4)CC3)n2)ccn1` [Example 199, 3-(Pyridin-4-yl)-1-(2,8-diazaspiro[4.5]decan-8-yl)-2,6-naphthyridine], the EC50 in assay [1] was 6100 nM. The same molecule gave a Ki in assay [2] of 3.3 nM.

For `CCc1cncc2nc(-c3ccncc3)nc(N3CCC4(CCNC4)CC3)c12` [Example 204, 5-Ethyl-2-(pyridin-4-yl)-4-(2,8-diazaspiro[4.5]decan-8-yl)pyrido[3,4-d]pyrimidine], a half-maximal effect in assay [1] (EC50) was put at 1000 nM. The molecule also gave a Ki in assay [2] of 1.1 nM.

In assay [1], `OC1(CN2CCC3(CCN(c4nc(-c5ccncc5)nc5cnccc45)CC3)C2)CCC1` [Example 205, 1-((8-(2-(Pyridin-4-yl)pyrido[3,4-d]pyrimidin-4-yl)-2,8-diazaspiro[4.5]decan-2-yl)methyl)cyclobutan-1-ol] returned an EC50 of 170 nM. Affinity in assay [2] was put at a Ki of 0.23 nM.

For the molecule `OCC1CC2(CCN(c3nc(-c4ccncc4)nc4cnccc34)CC2)CN1C1CCCC1` (stereo not shown) [Example 206, (2-cyclopentyl-8-(2-(pyridin-4-yl)pyrido[3,4-d]pyrimidin-4-yl)-2,8-diazaspiro[4.5]decan-3-yl)methanol], a half-maximal response in assay [1] (EC50) required 170 nM. This molecule had a Ki in assay [2] of 0.1 nM.

On to `OC1(CN2CCC3(CCN(c4nc(-c5ccncc5)nc5cnccc45)CC3)C2)COC1` [Example 211, 3-((8-(2-(Pyridin-4-yl)pyrido[3,4-d]pyrimidin-4-yl)-2,8-diazaspiro[4.5]decan-2-yl)methyl)oxetan-3-ol], for which a half-maximal response in assay [1] (EC50) required 420 nM. Further, in assay [2], the Ki was 0.11 nM.

In the case of `FC(F)c1[nH]ncc1-c1nc(N2CCC3(CCNC3)CC2)c2ccncc2n1` [Example 213, 2-(5-(difluoromethyl)-1H-pyrazol-4-yl)-4-(2,8-diazaspiro[4.5]decan-8-yl)pyrido[3,4-d]pyrimidine], the EC50 in assay [1] is > 10000 nM. This molecule also came in with a Ki in assay [2] of 0.6 nM.
